This note sets out measurements from patent publication US6071884A, “Pharmaceutical compositions and therapeutic methods” (Kirin Beer Kabushiki Kaisha, priority 1992, dated 2000).

For data set [1], the system named is marrow cells (mononuclear cell fraction). Description: Effect on marrow cell of monkey (3H-TdR uptake). To be noted: Primates, 96 h, percentage of control, 4 days. The class given is cell-based, croo monkey. The method, then: Pharmacological Test 2: Effect on Marrow Cell of Monkey
Marrow cells were prepared from the humerus of a croo monkey, and an MNF obtained by fractionation using a Lymphoprep (Nycomed Pharma AS, Oslo, Norway) was used in the following experiment.
The MNF was suspended in an RPMI 1640 medium added with 10% blood plasma of a croo monkey to make its concentration 1×10^6 cells/ml.
10 μl/well of a sample with a predetermined concentration and 100 μl/well of the above-prepared MNF were placed on a round-bottomed 96 well plate, and incubated under the conditions of 37° C. and 5% CO2 for 4 days. Thereafter, 0.5 μCi/well of ^3 H-TdR was added. After 6 hours, the cells were harvested, and the amount of the ^3 H-TdR taken in the nuclei was measured by a liquid scintillation counter.

Data set [2] has as its system red blood cells. Briefly: Red blood cell count in monkey. The class given is in vivo, croo monkey. To be noted: for Number of Red Blood Cells: mean ± SD. Here is the method:
(§1) Pharmacological Test 7: Blood-Platelet-Increasing Effect upon Monkey
(§2) Six croo monkeys (female, 3 to 5 years old, 2.3 to 2.8 kg), 2 monkeys in one group were used. A vehicle, 0.1 mg/body of the compound 33 or 1 mg/body of the compound 33 was intravenously administered to the monkeys. 6 and 9 days after the administration, blood was collected by using a blood-collecting tube EDTA-2K, and the numbers of blood platelets, white blood cells and red blood cells contained in the peripheral blood were measured by using an E-2500/cs. The results are shown in Tables 7-1, 7-2 and 7-3, respectively.

A short description of data set [3]: Acute toxicity. It is filed as in vivo. To be noted: 7 days. Here is the method:
Test Example 2: Acute Toxicity
0.1, 1.0 or 10 mg/kg of Compound 5 or 33 was intravenously administered to Crj:CD rats (male, 5 weeks old), 6 rats in one group. 7 days after the administration, a toxicity test was carried out.

The test system of data set [4] is marrow cells (mononuclear cell fraction). Description: Proliferation-stimulating effect on marrow cell of mouse (3H-TdR uptake). It is filed as cell-based, mouse (BALB/c). To be noted: percentage of control, 72 h. The essentials:
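Mononuclear marrow cell fraction from 7-week-old female BALB/c mouse thigh bone, 1.5×10^6 cells/ml in 10% FCS RPMI 1640, cultured with test sample 72 h at 37° C. ³H-thymidine (0.5 μCi/well) then added for 8 h; nuclear ³H-TdR uptake counted by liquid scintillation.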

For data set [5], the system named is white blood cells. Briefly: White blood cell count in monkey. Conditions: for Number of White Blood Cells: mean ± SD. It is filed as in vivo, croo monkey. The method, then:
as §1, §2

The subject of data set [6] is blood platelets. Briefly: Thrombocytopenia-inhibiting effect in X-ray-irradiated mice. The class given is in vivo, mouse (BDF1). Conditions: 10 days after 5 Gy X-ray; 0.1 mg/kg i.v. within 2 h; mean ± SD; vehicle per series 10.3, 6.8, 6.7; non-treatment 68.2, 96.9, 73.0. The gist of the method:
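Female BDF1 mice, 6 weeks old, six per group, given 5 Gy whole-body X-ray, then 0.1 mg/kg i.v. via tail vein within 2 hours. Platelets counted by hemocytometer in fundus-vein blood 10 days later; untreated and vehicle groups run alongside.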

Data set [7] deals with blood platelets. Description: Blood-platelet-increasing effect upon normal mouse. To be noted: normal mice; 6 days after 0.1 mg/kg i.v.; mean ± SD; vehicle per series 58.2, 63.0, 71.1. It is filed as in vivo, mouse (BDF1). The gist of the method:
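Female BDF1 mice, 6 weeks old (5 per group), received test sample at 0.1 mg/kg into the caudal vein. Six days later, fundus-vein blood was taken and platelets counted on a multi-channel hemocytometer, compared against vehicle-treated animals.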

Broadly, the LD50 is the dose at which mortality reaches 50%. Turning to `CCCCCCCCCCCCCCCCCCCCCCCCCC(=O)N[C@@H](CO[C@H]1O[C@H](CO)[C@H](O)[C@H](O)[C@H]1O)[C@H](O)[C@H](O)CCCCCCCCCCCCCC` [Compound 33, (2S,3S,4R)-1-(α-D-galactopyranosyloxy)-2-hexacosanoylamino-3,4-octadecanediol], the activity at 0.1 µg/mL in data set [1] (10^-1 μg/ml) came out at 177%; in data set [4] (10^-1 μg/ml), 460%. The figures for the activity at 0.01 µg/mL in data set [1] (10^-2 μg/ml) and in data set [4] (10^-2 μg/ml) were 194% and 330%, respectively. Also, the “Number of Red Blood Cells” value in data set [2] (0.1 mg/body i.v., after 6 days, vehicle 516 ± 6) is reported as 498 ± 18 × 10^4 /μl; in data set [2] (0.1 mg/body i.v., after 9 days, vehicle 506 ± 1), 538 ± 2 × 10^4 /μl; in data set [2] (1 mg/body i.v., after 6 days, vehicle 516 ± 6) it was 569 ± 40 × 10^4 /μl; in data set [2] (1 mg/body i.v., after 9 days, vehicle 506 ± 1), 574 ± 37 × 10^4 /μl. Besides, in data set [2] (0.1 mg/body, 9 days after administration), the “red-blood-cell-increasing effect (in words)” value is listed as “red-blood-cell-increasing effect was clearly found”. Further, the death of rats result in data set [3] (10 mg/kg i.v.) is listed as “the rats did not die”. Further, in data set [3] (i.v. 0.1, 1.0 or 10 mg/kg), the post-mortem examination result is “no abnormality was found”. In addition, the LD50 at 168 h in data set [3] (rat, in vivo, iv, male rats) was at least 10 mg/kg. Further, in data set [4] (10^-3 μg/ml), the activity at 0.001 µg/mL stood at 175%. The “Number of White Blood Cells” value is 156 ± 1 × 10^2 /μl in data set [5] (0.1 mg/body i.v., after 6 days, vehicle 91 ± 31); 105 ± 15 × 10^2 /μl in data set [5] (0.1 mg/body i.v., after 9 days, vehicle 94 ± 57); 150 ± 37 × 10^2 /μl in data set [5] (1 mg/body i.v., after 6 days, vehicle 91 ± 31); 169 ± 21 × 10^2 /μl in data set [5] (1 mg/body i.v., after 9 days, vehicle 94 ± 57). In data set [5] (0.1 mg/body, 6 days after administration, equal to 1 mg/body), the “white-blood-cell-increasing effect (in words)” value is “remarkable white-blood-cell-increasing effect”. For the same compound, the “Number of Blood Platelets” value is recorded as 23.9 ± 6.5 × 10^4 /μl in data set [6] and 142.3 ± 10.2 × 10^4 /μl in data set [7].
